Blank lines part the entries; values can stand above or below the compound they belong to. Activity calls are given as the source filed them.
Assays:
Phosphomannomutase 2 = Phosphomannomutase 2 (Homo sapiens, UniProt O15305); experiment: Counter screen SAR assay for PMM2 inhibitors via a fluorescence intensity assay. [Related pubchem assays (depositor defined):AID1545, AID1574]
[1] = biological target: Mitogen-activated protein kinase 10 (Homo sapiens, UniProt P53779); experiment: Dose response biochemical screening assay for inhibitors of c-Jun N-Terminal Kinase 3 (JNK3). [Related pubchem assays: 746 ]
Chain of Mitogen-activated protein kinase 10 (P53779 whole entry): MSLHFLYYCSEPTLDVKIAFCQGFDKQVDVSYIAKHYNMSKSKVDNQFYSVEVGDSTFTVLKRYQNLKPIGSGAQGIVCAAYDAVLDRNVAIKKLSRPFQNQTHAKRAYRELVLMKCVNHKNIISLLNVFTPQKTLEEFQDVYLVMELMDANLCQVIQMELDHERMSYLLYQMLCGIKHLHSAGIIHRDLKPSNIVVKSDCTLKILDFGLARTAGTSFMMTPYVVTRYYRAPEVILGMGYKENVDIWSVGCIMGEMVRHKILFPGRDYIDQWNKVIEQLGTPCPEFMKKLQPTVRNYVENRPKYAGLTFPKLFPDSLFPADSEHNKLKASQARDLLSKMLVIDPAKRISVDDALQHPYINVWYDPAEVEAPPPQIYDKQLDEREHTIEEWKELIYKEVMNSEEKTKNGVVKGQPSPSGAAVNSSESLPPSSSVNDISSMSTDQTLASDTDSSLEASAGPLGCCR

[2] = biological target: Peroxisome proliferator-activated receptor gamma/Nuclear receptor coactivator 3 (Homo sapiens, UniProt P37231); experiment: TR-FRET dose response biochemical High Throughput Screening assay for agonists of the steroid receptor coactivator 3 (SRC-3) recruitment by the peroxisome proliferator-activated receptor gamma (PPAR gamma): non-selective agonists. [Related pubchem assays: 1301 (Confirmation screen.), 1048 (Primary screen.)]; assay type: functional
[3] = biological target: Peroxisome proliferator-activated receptor gamma/Nuclear receptor coactivator 2 (Homo sapiens, UniProt P37231); experiment: (§1) TR-FRET dose response biochemical High Throughput Screening assay for agonists of the steroid receptor coactivator 2 (SRC-2) recruitment by the peroxisome proliferator-activated receptor gamma (PPAR gamma): non-selective agonists. [Related pubchem assays: 1297, 1032 ]; assay type: functional
[4] = biological target: T1, Mannose-6-phosphate isomerase (Homo sapiens, UniProt P34949); experiment: PMI enzyme inhibitors, confirmation, biochemical, fluorescence intensity (AID 1535)
T1 sequence (P34949 whole entry): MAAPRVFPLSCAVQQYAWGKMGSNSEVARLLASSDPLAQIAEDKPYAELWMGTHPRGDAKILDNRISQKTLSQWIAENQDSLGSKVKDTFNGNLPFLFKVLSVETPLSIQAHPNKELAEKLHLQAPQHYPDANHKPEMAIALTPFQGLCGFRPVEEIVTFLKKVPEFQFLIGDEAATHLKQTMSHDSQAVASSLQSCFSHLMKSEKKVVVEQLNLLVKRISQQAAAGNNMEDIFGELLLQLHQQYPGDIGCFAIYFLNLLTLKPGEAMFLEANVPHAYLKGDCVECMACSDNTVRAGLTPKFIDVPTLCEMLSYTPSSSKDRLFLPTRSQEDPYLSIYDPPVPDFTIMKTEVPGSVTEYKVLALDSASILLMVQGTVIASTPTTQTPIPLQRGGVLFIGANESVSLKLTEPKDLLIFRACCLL

[5] = biological target: Peroxisome proliferator-activated receptor gamma/Nuclear receptor coactivator 1 (Homo sapiens, UniProt P37231); experiment: as §1, with “1 (SRC-1)” for “2 (SRC-2)”, “assays (depositor defined):AID1300, AID1808, AID504735, AID631]” for “assays: 1297, 1032 ]”; assay type: protein assay
Chain of Peroxisome proliferator-activated receptor gamma/Nuclear receptor coactivator 1 (P37231 whole entry): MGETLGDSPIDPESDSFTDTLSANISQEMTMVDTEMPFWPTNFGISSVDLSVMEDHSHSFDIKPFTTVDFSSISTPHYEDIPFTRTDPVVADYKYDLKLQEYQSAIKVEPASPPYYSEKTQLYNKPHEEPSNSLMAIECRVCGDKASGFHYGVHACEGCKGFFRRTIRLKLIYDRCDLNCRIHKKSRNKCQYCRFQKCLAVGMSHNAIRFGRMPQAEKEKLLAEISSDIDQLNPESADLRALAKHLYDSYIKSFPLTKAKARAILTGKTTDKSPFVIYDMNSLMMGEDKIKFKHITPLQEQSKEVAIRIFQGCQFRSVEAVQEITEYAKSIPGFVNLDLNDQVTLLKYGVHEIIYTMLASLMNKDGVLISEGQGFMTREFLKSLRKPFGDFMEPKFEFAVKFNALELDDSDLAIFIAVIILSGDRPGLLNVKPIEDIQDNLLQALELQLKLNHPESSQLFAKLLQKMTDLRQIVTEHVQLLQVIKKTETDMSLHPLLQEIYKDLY
Chain of Peroxisome proliferator-activated receptor gamma/Nuclear receptor coactivator 1 (Q15788 whole entry, further chain): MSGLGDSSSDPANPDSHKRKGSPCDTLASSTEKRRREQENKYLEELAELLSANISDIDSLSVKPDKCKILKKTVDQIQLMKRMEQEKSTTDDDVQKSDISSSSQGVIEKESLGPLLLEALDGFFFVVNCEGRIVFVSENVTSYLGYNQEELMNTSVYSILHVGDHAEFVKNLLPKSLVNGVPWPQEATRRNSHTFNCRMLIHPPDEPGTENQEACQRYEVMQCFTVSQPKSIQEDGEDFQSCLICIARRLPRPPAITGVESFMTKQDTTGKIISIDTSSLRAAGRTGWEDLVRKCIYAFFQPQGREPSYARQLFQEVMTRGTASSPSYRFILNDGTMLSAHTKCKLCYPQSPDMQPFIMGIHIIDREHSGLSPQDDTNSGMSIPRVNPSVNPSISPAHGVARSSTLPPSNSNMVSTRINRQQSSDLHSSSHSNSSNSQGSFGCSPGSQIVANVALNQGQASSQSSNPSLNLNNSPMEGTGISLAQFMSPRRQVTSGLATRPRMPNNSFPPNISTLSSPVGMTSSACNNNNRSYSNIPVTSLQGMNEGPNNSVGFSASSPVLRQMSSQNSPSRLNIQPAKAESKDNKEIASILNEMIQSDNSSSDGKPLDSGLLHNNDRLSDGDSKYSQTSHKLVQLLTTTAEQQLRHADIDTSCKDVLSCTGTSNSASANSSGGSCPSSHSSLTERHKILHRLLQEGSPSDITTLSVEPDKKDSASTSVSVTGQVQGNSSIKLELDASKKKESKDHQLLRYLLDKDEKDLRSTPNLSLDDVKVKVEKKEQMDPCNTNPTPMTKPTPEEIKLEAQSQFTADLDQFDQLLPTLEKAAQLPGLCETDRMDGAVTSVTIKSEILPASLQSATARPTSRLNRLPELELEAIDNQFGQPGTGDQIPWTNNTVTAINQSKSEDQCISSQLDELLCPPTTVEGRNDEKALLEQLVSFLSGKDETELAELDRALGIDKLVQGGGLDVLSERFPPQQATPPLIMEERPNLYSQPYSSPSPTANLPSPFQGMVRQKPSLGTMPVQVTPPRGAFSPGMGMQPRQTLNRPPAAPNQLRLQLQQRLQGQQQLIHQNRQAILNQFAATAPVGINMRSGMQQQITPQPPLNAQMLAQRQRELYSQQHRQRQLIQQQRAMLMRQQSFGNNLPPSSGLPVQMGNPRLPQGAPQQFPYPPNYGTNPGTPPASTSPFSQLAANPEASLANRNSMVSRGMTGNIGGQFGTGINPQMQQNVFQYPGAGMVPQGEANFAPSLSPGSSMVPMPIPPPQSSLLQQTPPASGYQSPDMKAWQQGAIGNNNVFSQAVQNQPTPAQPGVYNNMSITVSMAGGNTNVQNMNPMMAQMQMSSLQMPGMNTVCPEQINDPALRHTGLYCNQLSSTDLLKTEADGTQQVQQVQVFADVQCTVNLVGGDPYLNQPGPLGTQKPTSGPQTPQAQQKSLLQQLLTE

[6] = Jurkat T cell cytotoxicity, dose response, cytotoxicity control for P. falciparum gametocyte viability project, luminescence (AID 1117277); assay type: functional, cell-based;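 note: potency reflects loss of cellular ATP meaning fewer viable cells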
[7] = P. falciparum late gametocyte killing, dose response, luminescence (AID 1117278); assay type: functional, cell-based;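 note: gametocytes exposed to compound for 24 hours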
[8] = biological target: T2, Low molecular weight phosphotyrosine protein phosphatase (Homo sapiens, UniProt P24666); assay type: functional; conditions: read-out: IC50_Mean;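 note: Dose-response confirmation assay measuring inhibition of LMPTP enzyme activity by fluorescence intensity read-out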
T2 sequence (P24666 whole entry): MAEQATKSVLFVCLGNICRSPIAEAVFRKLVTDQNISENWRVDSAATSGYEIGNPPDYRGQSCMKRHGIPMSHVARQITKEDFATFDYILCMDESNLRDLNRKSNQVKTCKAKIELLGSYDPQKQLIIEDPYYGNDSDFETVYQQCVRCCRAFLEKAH

[9] = Artemis endonuclease inhibitor potency, dose response, biochemical, fluorescence intensity (AID 720701); assay type: functional;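 note: Artemis endonuclease enzyme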
[10] = Luminescence Cell-Based Dose Confirmation HTS to Identify Inhibitors of Polyadenylation.; assay type: functional
[11] = DNA binding of candidate compounds, dose response, artefact control for RAD54 inhibitor project, biochemical, fluorescence polarization, cherry-pick (AID 651673); assay type: functional
[12] = biological target: DNA (cytosine-5)-methyltransferase 1 (Homo sapiens, UniProt P26358); experiment: DNMT1 methyltransferase inhibitors, confirmation, biochemical, fluorescent molecular beacon (AID 602386); assay type: functional
Chain of DNA (cytosine-5)-methyltransferase 1 (P26358 whole entry): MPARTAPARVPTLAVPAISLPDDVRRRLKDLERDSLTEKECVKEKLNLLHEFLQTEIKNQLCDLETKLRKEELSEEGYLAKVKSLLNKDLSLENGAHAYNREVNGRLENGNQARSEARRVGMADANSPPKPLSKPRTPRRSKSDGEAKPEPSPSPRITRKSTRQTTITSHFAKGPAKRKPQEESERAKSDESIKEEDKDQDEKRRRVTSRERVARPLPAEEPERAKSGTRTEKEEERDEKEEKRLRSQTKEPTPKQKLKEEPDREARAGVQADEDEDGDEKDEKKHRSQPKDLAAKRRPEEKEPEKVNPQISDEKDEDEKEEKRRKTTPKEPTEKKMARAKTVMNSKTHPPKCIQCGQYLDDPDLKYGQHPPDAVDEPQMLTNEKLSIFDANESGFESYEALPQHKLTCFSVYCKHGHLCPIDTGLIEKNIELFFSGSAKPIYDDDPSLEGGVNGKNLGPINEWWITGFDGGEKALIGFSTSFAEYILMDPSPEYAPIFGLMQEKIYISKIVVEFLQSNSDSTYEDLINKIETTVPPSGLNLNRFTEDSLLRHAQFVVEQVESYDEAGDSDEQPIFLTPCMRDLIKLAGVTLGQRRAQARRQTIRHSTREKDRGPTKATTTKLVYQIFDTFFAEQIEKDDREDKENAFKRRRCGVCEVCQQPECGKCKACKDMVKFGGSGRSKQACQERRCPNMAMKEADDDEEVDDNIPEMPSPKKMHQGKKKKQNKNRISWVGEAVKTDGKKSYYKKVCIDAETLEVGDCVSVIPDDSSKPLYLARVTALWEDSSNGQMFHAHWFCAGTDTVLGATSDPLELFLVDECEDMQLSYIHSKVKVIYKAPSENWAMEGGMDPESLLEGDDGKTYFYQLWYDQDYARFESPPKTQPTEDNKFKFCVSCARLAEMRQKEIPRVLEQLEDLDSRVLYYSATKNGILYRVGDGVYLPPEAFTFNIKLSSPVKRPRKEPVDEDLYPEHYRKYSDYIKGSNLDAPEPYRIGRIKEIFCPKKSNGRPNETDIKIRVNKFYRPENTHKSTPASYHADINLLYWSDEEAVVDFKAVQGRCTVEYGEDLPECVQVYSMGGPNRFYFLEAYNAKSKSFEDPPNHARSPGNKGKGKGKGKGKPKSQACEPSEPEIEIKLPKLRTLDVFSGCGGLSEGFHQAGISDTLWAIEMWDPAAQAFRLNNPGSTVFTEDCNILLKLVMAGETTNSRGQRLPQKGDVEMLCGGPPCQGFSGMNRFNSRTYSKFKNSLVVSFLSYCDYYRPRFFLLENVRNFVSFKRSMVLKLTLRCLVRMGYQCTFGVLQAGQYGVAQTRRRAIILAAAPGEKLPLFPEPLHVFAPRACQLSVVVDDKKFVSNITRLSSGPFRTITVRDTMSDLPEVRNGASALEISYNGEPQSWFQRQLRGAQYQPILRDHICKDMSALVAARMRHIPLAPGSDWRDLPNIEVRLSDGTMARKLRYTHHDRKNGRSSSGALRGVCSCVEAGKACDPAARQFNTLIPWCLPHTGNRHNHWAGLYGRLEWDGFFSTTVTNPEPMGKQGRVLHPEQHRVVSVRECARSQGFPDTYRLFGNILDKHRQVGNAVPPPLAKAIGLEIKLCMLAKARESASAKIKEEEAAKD

[13] = biological target: T3, DNA repair and recombination protein RAD54-like (Homo sapiens, UniProt Q92698); experiment: inhibitors of human RAD54 branch migration, confirmation, biochemical, fluorescence, cherry-picked samples, dose series (AID 651657); assay type: functional
T3 sequence (Q92698 whole entry): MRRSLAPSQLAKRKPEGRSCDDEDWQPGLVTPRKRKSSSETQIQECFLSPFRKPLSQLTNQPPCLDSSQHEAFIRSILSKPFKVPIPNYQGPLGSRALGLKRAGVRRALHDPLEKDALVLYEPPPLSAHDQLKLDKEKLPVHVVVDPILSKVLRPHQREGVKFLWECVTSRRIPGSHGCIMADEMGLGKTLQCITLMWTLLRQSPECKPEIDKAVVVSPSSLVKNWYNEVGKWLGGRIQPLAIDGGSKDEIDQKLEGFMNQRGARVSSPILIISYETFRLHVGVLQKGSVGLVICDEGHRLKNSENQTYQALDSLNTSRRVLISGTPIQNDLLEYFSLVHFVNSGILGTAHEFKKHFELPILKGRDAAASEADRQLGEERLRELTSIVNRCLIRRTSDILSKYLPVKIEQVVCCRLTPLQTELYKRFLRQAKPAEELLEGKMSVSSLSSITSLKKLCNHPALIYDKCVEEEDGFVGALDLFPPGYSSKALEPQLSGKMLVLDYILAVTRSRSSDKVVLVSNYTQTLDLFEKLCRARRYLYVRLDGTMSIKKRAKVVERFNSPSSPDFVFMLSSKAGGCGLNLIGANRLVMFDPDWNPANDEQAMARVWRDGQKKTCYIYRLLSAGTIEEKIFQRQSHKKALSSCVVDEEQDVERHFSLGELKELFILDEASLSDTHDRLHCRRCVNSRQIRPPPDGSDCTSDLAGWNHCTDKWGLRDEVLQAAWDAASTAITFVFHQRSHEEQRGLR

[14] = biological target: T4, DNA repair protein RAD52 homolog (Homo sapiens, UniProt P43351); assay type: functional, biochemical
T4 sequence (P43351 whole entry): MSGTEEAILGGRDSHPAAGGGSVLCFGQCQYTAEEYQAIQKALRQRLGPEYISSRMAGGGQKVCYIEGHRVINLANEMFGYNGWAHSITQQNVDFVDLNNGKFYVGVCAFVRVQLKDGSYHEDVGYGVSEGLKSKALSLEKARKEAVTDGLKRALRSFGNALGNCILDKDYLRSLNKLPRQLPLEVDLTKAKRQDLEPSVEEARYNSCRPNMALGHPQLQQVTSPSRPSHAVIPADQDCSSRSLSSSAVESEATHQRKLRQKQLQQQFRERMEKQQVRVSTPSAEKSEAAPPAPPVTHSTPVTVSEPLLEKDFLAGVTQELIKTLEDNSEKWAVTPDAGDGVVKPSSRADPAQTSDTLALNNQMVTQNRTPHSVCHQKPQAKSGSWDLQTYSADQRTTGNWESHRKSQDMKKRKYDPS

[15] = biological target: Heat shock protein HSP 90-alpha (Homo sapiens, UniProt P07900); experiment: Luminescence-based dose response biochemical high throughput screening assay for inhibitors of the Heat Shock Protein 90 (HSP90). [Related pubchem assays: 1831 (Summary AID.), 1846 (Confirmation screen.), 1789 (Primary screen.)]
[16] = cytotoxicity toward DRD oncogenic fibroblasts, dose response, cell-based, non-viral oncogenic, luminescence (AID 1934); assay type: functional; conditions: Homo sapiens
BJ [17] = experiment: cytotoxicity toward BJ-TERT fibroblasts, dose response, cell-based, RAS-independent, luminescence (AID 1933); assay type: functional; conditions: Homo sapiens
BJ [18] = experiment: cytotoxicity toward Ras-transformed BJeLR fibroblasts, dose response, cell-based, alamar blue fluorescence, cherrypicked samples (AID 2631); assay type: functional; conditions: Homo sapiens;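 note: confirmatory dose-response assay in RAS-dependent BJ fibroblasts engineered with TERT, LT and ST, with cytotoxicity read by fluorescence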
[19] = Luminescent dose response cell-based high throughput screening assay for inhibitors of the Janus kinase 2 mutant JAK2V617F. [Related pubchem assays: 1446 (Primary screen.), 1521 (Confirmation assay.), 1486 (Counter screen.)]; assay type: functional
BJ [20] = experiment: cells; assay type: functional, cell-based; conditions: Homo sapiens
BJ [21] = experiment: cytotoxicity toward BJ-TERT-LT-ST fibroblasts, dose response, cell-based, RAS-independent, luminescence (AID 1935); assay type: functional; conditions: Homo sapiens;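 note: BJ fibroblasts immortalized with TERT plus LT and ST oncogenes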
[22] = biological target: Photoreceptor-specific nuclear receptor (Homo sapiens, UniProt Q9Y5X4); experiment: NR2E3 inverse agonists, dose response, biochemical, TR-FRET (AID 463256); assay type: functional
Chain of Photoreceptor-specific nuclear receptor (Q9Y5X4 whole entry): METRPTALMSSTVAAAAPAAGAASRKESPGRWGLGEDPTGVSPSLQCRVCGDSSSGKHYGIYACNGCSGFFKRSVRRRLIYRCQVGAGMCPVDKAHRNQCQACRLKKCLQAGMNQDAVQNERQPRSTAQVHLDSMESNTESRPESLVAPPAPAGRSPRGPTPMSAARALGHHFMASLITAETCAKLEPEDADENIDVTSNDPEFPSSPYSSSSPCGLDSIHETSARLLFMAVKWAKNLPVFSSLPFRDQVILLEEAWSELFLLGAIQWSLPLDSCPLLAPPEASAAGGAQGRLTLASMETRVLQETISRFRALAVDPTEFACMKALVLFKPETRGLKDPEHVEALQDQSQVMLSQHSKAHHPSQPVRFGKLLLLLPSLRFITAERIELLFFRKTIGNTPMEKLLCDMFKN

[23] = biological target: Peroxisome proliferator-activated receptor gamma/Nuclear receptor corepressor 2 (Homo sapiens, UniProt P37231+Q9Y618); experiment: Counterscreen for NR2E3 inverse agonists: TR-FRET-based biochemical high throughput dose response assay to identify inverse agonists of the interaction between peroxisome proliferator-activated receptor gamma (PPARg) and nuclear receptor co-repressor 2 (NCOR2).; assay type: functional

Chain of Phosphomannomutase 2 (O15305 whole entry): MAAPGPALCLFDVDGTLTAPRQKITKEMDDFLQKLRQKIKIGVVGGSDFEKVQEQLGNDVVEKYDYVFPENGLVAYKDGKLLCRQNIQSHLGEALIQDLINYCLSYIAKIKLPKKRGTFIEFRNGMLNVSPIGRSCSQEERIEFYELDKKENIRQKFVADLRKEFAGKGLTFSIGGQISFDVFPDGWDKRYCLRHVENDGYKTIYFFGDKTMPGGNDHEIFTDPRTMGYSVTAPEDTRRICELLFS

SMILES: O=C(O)c1ccc(-c2ccccc2)nc1O
- IC50 [6]: > 83.2 µM (inactive)
- IC50 [7]: > 109 µM (inactive)

SMILES: O=C(Cc1cn2ccsc2n1)Nc1nc2c(s1)CN(Cc1ccccc1)CC2
- IC50 [8]: 44.6 µM (inactive)
- IC50 [9]: > 20 µM (inactive)

SMILES: CN(C)CCc1cc2c(c3c1ccc1ccccc13)OCO2
- EC50 [10]: > 120 µM (not active)
- AC50 [11]: 39.9 µM (active)
- IC50 [12]: > 99 µM (inactive)
- AC50 [13]: 4.76 µM (active)
- AC50 [14]: 1.29 µM (active)

SMILES: CCOc1ccc(Nc2nc(N)nc(CCl)n2)cc1
- EC50 [16]: 0.694 µM (active)
- EC50 (BJ [17]): 0.839 µM (inconclusive)
- EC50 (BJ [18]): 5.73 µM (active)
- IC50 [19]: 0.597 µM (active)
- EC50 (BJ [20]): 1.8 µM (active)
- EC50 (BJ [21]): 10.8 µM (inconclusive)

Now from value to compound:

- IC50 (Phosphomannomutase 2): > 100 µM (inactive)
- IC50 [1]: > 93.1 µM (not active)
- EC50 [2]: > 79.4 µM (not active)
- EC50 [3]: 3.25 µM (active)
- IC50 [4]: > 50 µM (inactive)
- EC50 [5]: 7.33 µM (active)
SMILES: Sc1nnc(-c2cccc(Br)c2)o1

- IC50 [15]: > 60 µM (not active)
SMILES: COC(=O)c1ccc(NC(=O)c2ccc(C)cc2)o1

- IC50 [22]: 4.06 µM (active)
- IC50 [23]: 3.99 µM (active)
SMILES: Cc1cc(C)c2c(C)c(C(=O)NCc3ccc(S(N)(=O)=O)cc3)oc2c1
